# Key:
# [1] = target: T1, TDO (A172 human glioblastoma cells) (Homo sapiens, UniProt P48775); test: A172 Kynurenine cell based assay; details: 500 μM L-tryptophan, 48 hours, kynurenine by Erhlich's reagent
# T1 construct: This assay utilised cancer cells which expressed either TDO or IDO; endogenous in cells; host or cells: A172 human glioblastoma cells
# Summary of the method: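 A172 glioblastoma cells (30,000/well) cultured at 37° C. in phenol red-free RPMI with 10% FCS, 2 mM L-glutamine and 500 μM L-tryptophan, with or without test compound. After 48 hours, kynurenine in the supernatant was read with Erhlich's reagent (5 min) as absorbance at 490 nm.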
# [2] = target: Recombinant human IDO (Homo sapiens, UniProt P14902); test: hIDO biochemical coupled assay; details: 45 μM L-tryptophan, coupled with kynurenine formamidase
# Summary of the method: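 Recombinant human IDO incubated in 50 mM KPO4 (pH 7.0), 0.5 mM EGTA, 0.5 mM EDTA, 0.05% Triton X100, 20 mM ascorbate, 10 μM methylene blue, 500 U/ml catalase and 50 μg/ml kynurenine formamidase. N-formylkynurenine converted to kynurenine, quantified by fluorescence after Ehrlich's reagent.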
# [3] = target: T2, IDO (SKOV3 human ovarian adenocarcinoma cells, IFN-γ induced) (Homo sapiens, UniProt P14902); test: SKOV3 Kynurenine cell based assay; details: IDO induced by 500 ng/ml IFN-γ, 500 μM L-tryptophan, 48 hours
# T2 construct: IDO expression was induced in the SKOV3 cells by the addition of 500 ng/ml IFN-γ; endogenous in cells; host or cells: SKOV3 human ovarian adenocarcinoma cells, induced with IFN-γ
# Summary of the method: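 IFN-γ (500 ng/ml) induced IDO in SKOV3 cells, seeded at 40,000/well in phenol red-free RPMI with 10% FCS, 2 mM L-glutamine and 500 μM L-tryptophan. Cells were incubated with or without compound at 37° C for 48 h. Supernatant kynurenine was detected with Ehrlich's reagent.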
# [4] = target: Recombinant human TDO (Homo sapiens, UniProt P48775); test: hTDO biochemical coupled assay; details: 330 μM L-tryptophan, coupled with kynurenine formamidase
# Summary of the method: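 Recombinant human TDO with 330 μM L-tryptophan in 50 mM KPO4 pH 7.0 containing EGTA, EDTA, Triton X100, ascorbate, methylene blue, catalase and kynurenine formamidase (KynB), 17 min at room temperature. Stopped with Ehrlich's reagent, 5 min, then kynurenine fluorescence read (Ex475, Em530).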
# Chain of Recombinant human TDO (P48775 whole entry): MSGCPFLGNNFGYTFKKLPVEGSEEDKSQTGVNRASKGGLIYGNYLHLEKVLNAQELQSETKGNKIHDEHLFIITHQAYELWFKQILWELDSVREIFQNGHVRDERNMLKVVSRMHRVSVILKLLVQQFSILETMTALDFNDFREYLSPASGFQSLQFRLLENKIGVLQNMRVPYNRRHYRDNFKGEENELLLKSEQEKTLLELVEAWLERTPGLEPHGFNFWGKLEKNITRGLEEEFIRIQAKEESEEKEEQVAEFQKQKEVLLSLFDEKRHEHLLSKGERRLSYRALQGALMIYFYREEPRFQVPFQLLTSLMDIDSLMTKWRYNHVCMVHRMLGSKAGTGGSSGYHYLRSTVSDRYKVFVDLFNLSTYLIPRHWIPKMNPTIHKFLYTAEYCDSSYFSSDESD
# T1 sequence (P48775 whole entry): as above
# T2 sequence (P14902 whole entry): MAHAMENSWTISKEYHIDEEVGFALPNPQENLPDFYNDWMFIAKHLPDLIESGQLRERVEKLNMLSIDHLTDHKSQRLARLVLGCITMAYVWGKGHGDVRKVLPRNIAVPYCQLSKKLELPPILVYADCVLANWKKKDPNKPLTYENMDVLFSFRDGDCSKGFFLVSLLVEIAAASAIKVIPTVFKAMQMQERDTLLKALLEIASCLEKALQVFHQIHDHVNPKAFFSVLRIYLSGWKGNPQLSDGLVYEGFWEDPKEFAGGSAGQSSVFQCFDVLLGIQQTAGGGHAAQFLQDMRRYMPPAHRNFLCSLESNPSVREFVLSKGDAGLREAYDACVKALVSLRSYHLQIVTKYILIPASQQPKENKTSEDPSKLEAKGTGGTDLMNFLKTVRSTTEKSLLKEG
# Chain of Recombinant human IDO (P14902 whole entry): as above
A172 Kynurenine cell based assay pIC50 [1],hIDO biocehmical assay pIC50 [2],SKOV3 Kynurenine cell based assay pIC50 [3],hTDO biochemical assay pIC50 [4],Compound
+ (+ = pIC50 4.00-4.99),+− (+− = pIC50 <4.00),+ (+ = pIC50 4.00-4.99),+− (+− = pIC50 <4.00),Cc1ccc2[nH]cc(C3CCN(S(=O)(=O)c4ccc(Br)cc4OC(F)(F)F)CC3)c2c1 [Compound 34]
+ (+ = pIC50 4.00-4.99),+− (+− = pIC50 <4.00),+− (+− = pIC50 <4.00),+− (+− = pIC50 <4.00),CC(=O)N1CCC(c2c[nH]c3cccc(F)c23)CC1 [Compound 98]
++ (++ = pIC50 5.00-5.99),+− (+− = pIC50 <4.00),+ (+ = pIC50 4.00-4.99),+ (+ = pIC50 4.00-4.99),CS(=O)(=O)N1CC=C(c2c[nH]c3ccc(Cl)cc23)CC1 [Compound 166]
